Measurements as given in ChEMBL document CHEMBL2034824, “Pyridyl-2,5-diketopiperazines as potent, selective, and orally bioavailable oxytocin antagonists: synthesis, pharmacokinetics, and in vivo potency” (J Med Chem, 2012).
Converted amounts (≈) assume the structure as drawn.

Assays:
[1] = molecular target: T1, Oxytocin receptor (Homo sapiens, UniProt P30559); assay: Antagonist activity at human oxytocin receptor assessed as inhibition of oxytocin binding by FLIPR analysis
T1 sequence (P30559 whole entry): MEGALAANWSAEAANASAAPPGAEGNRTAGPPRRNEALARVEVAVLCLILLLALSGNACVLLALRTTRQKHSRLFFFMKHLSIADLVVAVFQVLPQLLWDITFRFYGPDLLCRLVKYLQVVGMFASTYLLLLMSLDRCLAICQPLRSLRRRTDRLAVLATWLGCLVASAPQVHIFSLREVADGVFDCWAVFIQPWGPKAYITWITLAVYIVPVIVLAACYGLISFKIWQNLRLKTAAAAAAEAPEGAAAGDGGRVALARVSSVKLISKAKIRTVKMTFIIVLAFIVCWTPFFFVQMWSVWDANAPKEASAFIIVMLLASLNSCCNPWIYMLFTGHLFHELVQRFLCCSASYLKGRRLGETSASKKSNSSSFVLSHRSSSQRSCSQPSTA

[2] = molecular target: T1, Oxytocin receptor; assay: Displacement of [3H]oxytocin from human oxytocin receptor
[3] = AUC in rat at 5 mg/kg, po; assay type: ADME, organism-based; design: dose 5 mg/kg, route oral; details: plasma
[4] = Clearance in rat at 5 mg/kg; assay type: ADME, organism-based; design: dose 5 mg/kg; details: in vivo
[5] = Oral bioavailability in rat at 5 mg/kg; assay type: ADME, organism-based; details: in vivo
[6] = system: Liver microsomes; assay: Intrinsic clearance in rat liver microsomes; assay type: ADME, Microsome
[7] = system: Liver; assay: Intrinsic clearance in dog liver microsomes; assay type: ADME, Canis lupus familiaris, Microsome
[8] = Intrinsic clearance in cynomolgus monkey liver microsomes; assay type: ADME, Macaca fascicularis, Microsome
[9] = system: Liver microsomes; assay: Intrinsic clearance in human liver microsomes; assay type: ADME, Microsome
[10] = AUC in cynomolgus monkey at 2 mg/kg, po; assay type: ADME, organism-based, Macaca fascicularis; design: dose 2 mg/kg, route oral; details: plasma
[11] = AUC in dog at 0.6 mg/kg, po; assay type: ADME, organism-based, Canis lupus familiaris; design: dose 0.6 mg/kg, route oral; details: plasma
[12] = Clearance in dog at 0.6 mg/kg; assay type: ADME, organism-based, Canis lupus familiaris; design: dose 0.6 mg/kg; details: in vivo
[13] = Oral bioavailability in dog at 0.6 mg/kg; assay type: ADME, organism-based, Canis lupus familiaris; details: in vivo
[14] = Aqueous solubility of the compound by HPLC analysis; assay type: physicochemical
[15] = Lipophilicity, log D of the compound by HPLC analysis; assay type: physicochemical
[16] = molecular target: serum albumin (Homo sapiens, UniProt P02768); assay: Binding affinity to human serum albumin; assay type: ADME; details: read-out: PB (converted)
[17] = molecular target: serum albumin (Rattus norvegicus, UniProt P02770); assay: Binding affinity to rat serum albumin; assay type: ADME; details: read-out: PB (converted)
[18] = molecular target: Vasopressin V1a receptor (Homo sapiens, UniProt P37288); assay: Displacement of [3H]vasopressin from human vasopressin V1a receptor
[19] = molecular target: T2, Vasopressin V1b receptor (Homo sapiens, UniProt P47901); assay: Displacement of [3H]vasopressin from human vasopressin V1b receptor
T2 sequence (P47901 whole entry): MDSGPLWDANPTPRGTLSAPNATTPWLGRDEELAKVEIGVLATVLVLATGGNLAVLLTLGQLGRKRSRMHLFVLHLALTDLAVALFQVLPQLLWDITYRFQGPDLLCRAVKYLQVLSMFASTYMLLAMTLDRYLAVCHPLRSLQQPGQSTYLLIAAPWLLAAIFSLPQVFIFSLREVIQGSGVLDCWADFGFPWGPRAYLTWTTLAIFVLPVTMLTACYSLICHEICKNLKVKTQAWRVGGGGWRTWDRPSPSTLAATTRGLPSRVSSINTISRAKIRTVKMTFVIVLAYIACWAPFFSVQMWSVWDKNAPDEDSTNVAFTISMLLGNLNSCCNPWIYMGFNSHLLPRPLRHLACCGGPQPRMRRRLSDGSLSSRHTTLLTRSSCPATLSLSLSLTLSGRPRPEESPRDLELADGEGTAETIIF

[20] = molecular target: Vasopressin V2 receptor (Homo sapiens, UniProt P30518); assay: Displacement of [3H]vasopressin from human vasopressin V2 receptor
[21] = system: Rattus norvegicus; assay: Reduction of oxytocin-induced uterine contraction in iv dosed rat uterine contractility model; assay type: functional, organism-based
[22] = molecular target: T3, Cytochrome P450 1A2 (Homo sapiens, UniProt P05177); assay: Inhibition of human CYP1A2; assay type: ADME
T3 sequence (P05177 whole entry): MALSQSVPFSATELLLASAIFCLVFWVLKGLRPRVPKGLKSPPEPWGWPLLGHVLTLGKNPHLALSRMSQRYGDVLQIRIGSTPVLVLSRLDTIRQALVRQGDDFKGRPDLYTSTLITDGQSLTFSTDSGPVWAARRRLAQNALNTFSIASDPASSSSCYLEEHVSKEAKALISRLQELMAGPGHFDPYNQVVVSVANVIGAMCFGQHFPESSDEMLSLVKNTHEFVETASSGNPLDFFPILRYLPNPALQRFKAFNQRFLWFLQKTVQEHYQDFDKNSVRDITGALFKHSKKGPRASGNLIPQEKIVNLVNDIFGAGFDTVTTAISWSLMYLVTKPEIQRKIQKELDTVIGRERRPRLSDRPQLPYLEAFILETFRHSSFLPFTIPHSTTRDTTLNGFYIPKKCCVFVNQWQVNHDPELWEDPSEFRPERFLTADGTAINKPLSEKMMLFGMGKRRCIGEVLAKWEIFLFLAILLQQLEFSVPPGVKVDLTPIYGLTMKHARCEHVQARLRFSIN

[23] = molecular target: Cytochrome P450 2C9 (Homo sapiens, UniProt P11712); assay: Inhibition of human CYP2C9; assay type: ADME
[24] = molecular target: Cytochrome P450 2C19 (Homo sapiens, UniProt P33261); assay: Inhibition of human CYP2C19; assay type: ADME
[25] = molecular target: Cytochrome P450 2D6 (Homo sapiens, UniProt P10635); assay: Inhibition of human CYP2D6; assay type: ADME
[26] = molecular target: T4, Cytochrome P450 3A4 (Homo sapiens, UniProt P08684); assay: Inhibition of human CYP3A4 using diethoxyfluorescein as substrate; assay type: ADME
[27] = molecular target: T4, Cytochrome P450 3A4; assay: Inhibition of human CYP3A4 using 7-benzyloxyquinoline as substrate; assay type: ADME
[28] = system: Salmonella typhimurium; assay: Genotoxicity in Salmonella typhimurium by high-throughput fluctuation test/mini-Ames assay; assay type: toxicity, organism-based; details: salmonella enterica subsp. enterica serovar typhimurium
[29] = system: Rattus norvegicus; assay: Toxicity in Sprague-Dawley rat assessed as reduction in body weight at 100 mg/kg/day, po for 7 days; assay type: organism-based; design: route oral; details: in vivo, 168 h
[30] = system: Rattus norvegicus; assay: Toxicity in Sprague-Dawley rat assessed as reduction in food intake at 100 mg/kg/day, po for 7 days; assay type: organism-based; design: route oral; details: in vivo, 168 h
[31] = system: Rattus norvegicus; assay: Toxicity in Sprague-Dawley rat assessed as adverse clinical signs at 100 mg/kg/day, po for 7 days; assay type: organism-based; design: route oral; details: in vivo, 168 h
[32] = system: Rattus norvegicus; assay: Toxicity in Sprague-Dawley rat assessed as adverse histological findings at 100 mg/kg/day, po for 7 days; assay type: organism-based; design: route oral; details: in vivo, 168 h
[33] = Dissociation constant, pKa of the compound in aqueous solution; assay type: physicochemical
[34] = Lipophilicity, log D of the compound at pH 7.4; assay type: physicochemical; details: buffer
[35] = Solubility of the compound in water; assay type: physicochemical
[36] = Chemical stability of the compound up to 3 months at 50 degC; assay type: physicochemical
[37] = Chemical stability of the compound in aqueous solution at pH 2 to 6 up to 7 days in presence of light; assay type: physicochemical; details: buffer, pH 2, 168 h
[38] = Clearance in cynomolgus monkey at 2 mg/kg; assay type: ADME, organism-based, Macaca fascicularis; design: dose 2 mg/kg; details: in vivo
[39] = Oral bioavailability in cynomolgus monkey at 2 mg/kg; assay type: ADME, organism-based, Macaca fascicularis; details: in vivo
[40] = Half life in rat; assay type: ADME, organism-based; details: in vivo

T4 sequence (P08684 whole entry): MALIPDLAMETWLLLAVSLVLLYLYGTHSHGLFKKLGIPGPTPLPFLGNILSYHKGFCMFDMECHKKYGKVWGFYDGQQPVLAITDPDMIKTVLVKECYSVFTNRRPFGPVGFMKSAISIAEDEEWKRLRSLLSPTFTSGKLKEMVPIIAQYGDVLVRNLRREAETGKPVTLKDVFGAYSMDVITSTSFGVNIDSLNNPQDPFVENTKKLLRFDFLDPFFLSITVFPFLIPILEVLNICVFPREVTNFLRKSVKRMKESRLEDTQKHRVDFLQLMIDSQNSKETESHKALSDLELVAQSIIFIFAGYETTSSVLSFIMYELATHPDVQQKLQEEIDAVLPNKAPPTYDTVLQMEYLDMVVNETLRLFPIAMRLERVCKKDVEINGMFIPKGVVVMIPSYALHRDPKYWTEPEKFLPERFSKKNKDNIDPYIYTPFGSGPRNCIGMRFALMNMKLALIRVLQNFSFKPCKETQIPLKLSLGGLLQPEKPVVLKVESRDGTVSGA
Sequence of serum albumin (Homo sapiens, UniProt P02768) (P02768 whole entry): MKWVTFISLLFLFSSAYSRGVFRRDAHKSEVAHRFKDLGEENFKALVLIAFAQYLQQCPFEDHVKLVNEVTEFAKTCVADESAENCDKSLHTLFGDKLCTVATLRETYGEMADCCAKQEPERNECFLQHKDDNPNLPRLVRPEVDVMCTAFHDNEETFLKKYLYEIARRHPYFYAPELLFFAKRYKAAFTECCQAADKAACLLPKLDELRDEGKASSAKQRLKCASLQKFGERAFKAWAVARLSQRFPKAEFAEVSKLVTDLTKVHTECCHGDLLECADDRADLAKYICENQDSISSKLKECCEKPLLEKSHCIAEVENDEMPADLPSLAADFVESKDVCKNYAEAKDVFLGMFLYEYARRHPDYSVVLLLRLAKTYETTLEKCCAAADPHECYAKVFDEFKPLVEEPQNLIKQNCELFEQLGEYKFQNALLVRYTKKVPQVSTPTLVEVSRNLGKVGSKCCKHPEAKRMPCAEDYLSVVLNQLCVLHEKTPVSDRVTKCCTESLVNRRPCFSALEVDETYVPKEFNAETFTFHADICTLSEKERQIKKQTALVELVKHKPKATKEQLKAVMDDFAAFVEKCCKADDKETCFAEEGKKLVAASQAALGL
Sequence of serum albumin (Rattus norvegicus, UniProt P02770) (P02770 whole entry): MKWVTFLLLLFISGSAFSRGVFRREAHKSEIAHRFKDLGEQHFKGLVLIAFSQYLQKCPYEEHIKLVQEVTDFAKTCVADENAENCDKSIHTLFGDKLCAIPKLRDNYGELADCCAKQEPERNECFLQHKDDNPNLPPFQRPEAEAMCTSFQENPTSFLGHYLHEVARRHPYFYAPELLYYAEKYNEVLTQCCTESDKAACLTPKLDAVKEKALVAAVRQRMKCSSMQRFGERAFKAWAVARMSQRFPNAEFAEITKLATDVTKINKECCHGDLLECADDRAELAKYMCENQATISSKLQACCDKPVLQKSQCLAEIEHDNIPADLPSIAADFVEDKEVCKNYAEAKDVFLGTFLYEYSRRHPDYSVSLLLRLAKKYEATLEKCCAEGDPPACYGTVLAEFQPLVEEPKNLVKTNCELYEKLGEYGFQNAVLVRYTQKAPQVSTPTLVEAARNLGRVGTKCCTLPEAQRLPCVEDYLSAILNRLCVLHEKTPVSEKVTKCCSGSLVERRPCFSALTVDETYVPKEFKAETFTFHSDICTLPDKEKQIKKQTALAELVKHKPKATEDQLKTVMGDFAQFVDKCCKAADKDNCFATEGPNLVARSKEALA
Sequence of Cytochrome P450 2C19 (P33261 whole entry): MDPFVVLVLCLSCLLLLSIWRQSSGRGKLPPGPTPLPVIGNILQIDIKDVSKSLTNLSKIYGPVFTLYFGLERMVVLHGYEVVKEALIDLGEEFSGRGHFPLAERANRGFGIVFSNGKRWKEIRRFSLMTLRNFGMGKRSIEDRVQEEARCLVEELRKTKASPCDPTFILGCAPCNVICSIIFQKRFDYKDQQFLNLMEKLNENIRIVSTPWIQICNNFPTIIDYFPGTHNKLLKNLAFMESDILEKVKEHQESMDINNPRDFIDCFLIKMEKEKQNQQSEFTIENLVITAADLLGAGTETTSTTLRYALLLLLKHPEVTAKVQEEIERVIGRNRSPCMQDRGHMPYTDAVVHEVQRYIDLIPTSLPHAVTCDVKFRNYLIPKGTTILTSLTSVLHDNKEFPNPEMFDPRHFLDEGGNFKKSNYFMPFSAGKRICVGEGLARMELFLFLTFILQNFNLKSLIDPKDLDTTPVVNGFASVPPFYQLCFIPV
Sequence of Cytochrome P450 2C9 (P11712 whole entry): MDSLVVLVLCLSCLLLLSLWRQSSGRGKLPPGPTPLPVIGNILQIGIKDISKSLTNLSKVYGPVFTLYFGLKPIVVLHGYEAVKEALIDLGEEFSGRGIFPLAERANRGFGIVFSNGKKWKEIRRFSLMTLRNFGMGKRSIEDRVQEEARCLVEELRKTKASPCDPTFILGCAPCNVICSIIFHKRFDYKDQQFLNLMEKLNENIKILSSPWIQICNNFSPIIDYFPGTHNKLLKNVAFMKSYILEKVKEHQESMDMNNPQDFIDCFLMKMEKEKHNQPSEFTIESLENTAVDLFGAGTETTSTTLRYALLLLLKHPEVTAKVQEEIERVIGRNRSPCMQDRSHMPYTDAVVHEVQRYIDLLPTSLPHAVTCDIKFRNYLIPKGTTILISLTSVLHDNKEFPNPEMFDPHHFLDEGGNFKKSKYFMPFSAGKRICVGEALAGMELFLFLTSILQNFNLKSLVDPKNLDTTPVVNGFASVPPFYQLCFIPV
Sequence of Vasopressin V2 receptor (P30518 whole entry): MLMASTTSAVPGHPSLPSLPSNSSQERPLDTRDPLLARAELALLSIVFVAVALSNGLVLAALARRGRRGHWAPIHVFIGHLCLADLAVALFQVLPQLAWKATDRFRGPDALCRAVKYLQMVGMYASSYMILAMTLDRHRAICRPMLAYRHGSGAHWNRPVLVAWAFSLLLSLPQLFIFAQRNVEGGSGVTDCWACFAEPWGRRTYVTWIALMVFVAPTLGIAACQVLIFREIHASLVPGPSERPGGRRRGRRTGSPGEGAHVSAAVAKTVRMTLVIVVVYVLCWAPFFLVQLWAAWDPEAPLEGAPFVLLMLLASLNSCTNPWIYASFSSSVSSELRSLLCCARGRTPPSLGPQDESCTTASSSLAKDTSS
Sequence of Cytochrome P450 2D6 (P10635 whole entry): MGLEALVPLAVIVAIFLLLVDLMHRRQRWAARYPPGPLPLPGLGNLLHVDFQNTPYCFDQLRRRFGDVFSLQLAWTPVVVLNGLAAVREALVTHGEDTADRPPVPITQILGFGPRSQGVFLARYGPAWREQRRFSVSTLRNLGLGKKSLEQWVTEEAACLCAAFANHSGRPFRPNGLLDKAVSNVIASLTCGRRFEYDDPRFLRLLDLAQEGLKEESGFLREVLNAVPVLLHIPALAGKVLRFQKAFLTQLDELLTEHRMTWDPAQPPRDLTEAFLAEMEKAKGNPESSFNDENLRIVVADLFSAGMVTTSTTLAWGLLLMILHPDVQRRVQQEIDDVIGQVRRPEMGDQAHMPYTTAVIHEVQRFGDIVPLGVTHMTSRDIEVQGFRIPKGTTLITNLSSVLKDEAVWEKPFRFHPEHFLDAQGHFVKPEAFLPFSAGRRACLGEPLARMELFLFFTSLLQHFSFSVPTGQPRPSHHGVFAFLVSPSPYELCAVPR
Sequence of Vasopressin V1a receptor (P37288 whole entry): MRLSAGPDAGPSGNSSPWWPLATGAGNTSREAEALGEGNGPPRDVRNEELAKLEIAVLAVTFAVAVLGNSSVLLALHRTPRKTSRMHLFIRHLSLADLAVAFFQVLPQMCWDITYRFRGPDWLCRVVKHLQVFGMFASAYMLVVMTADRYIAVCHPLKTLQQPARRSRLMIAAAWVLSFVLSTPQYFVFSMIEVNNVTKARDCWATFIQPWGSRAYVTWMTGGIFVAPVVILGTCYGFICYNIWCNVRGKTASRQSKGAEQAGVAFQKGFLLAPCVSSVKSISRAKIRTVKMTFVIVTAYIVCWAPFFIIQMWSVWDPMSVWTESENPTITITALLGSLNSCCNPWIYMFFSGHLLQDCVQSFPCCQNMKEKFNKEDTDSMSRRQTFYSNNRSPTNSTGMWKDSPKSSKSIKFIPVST

CC(C)C[C@@H]1C(=O)N[C@H](C2Cc3ccccc3C2)C(=O)N1[C@@H](C(=O)NC(C)C)c1ccccc1C(F)(F)F
Ki [1]: 31.6 nM

CC(C)C[C@@H]1C(=O)N[C@H](C2Cc3ccccc3C2)C(=O)N1[C@@H](C(=O)NC(C)C)c1ccccc1Cl
Ki [1]: 3.98 nM

CCC(CC)[C@@H]1C(=O)N[C@H](C2Cc3ccccc3C2)C(=O)N1[C@@H](C(=O)N1CCOCC1)c1ccc(C)nc1C
Ki [2]: 0.0316 nM
AUC [3]: 2330 ng·h/mL
clearance [4]: 15 mL/min/kg
bioavailability [5]: 42%
CLH [6]: 1 mL/min/g
CLH [7]: 1 mL/min/g
CLH [8]: 14 mL/min/g
CLH [9]: 11 mL/min/g
AUC [10]: 11 ng·h/mL

CC(C)C[C@@H]1C(=O)N[C@H](C2Cc3ccccc3C2)C(=O)N1[C@@H](C(=O)NC(C)C)c1ccccc1OC(F)(F)F
Ki [1]: 39.8 nM

Cc1ccc([C@H](C(=O)N(C)C)N2C(=O)[C@@H](C3Cc4ccccc4C3)NC(=O)[C@H]2CC(C)C)cn1
Ki [2]: 1.58 nM
AUC [3]: 2680 ng·h/mL
clearance [4]: 18 mL/min/kg
bioavailability [5]: 57%
AUC [11]: 454 ng·h/mL
clearance [12]: 6 mL/min/kg
bioavailability [13]: 26%
solubility [14]: > 236 µg/mL
logD [15]: 2.1
fraction unbound [16]: 0.17
fraction unbound [17]: 0.14
CLH [6]: 3 mL/min/g
CLH [7]: 3 mL/min/g
CLH [8]: 21 mL/min/g
CLH [9]: 11 mL/min/g

CC[C@H](C)[C@@H]1C(=O)N[C@H](C2Cc3ccccc3C2)C(=O)N1[C@@H](C(=O)N1CCOCC1)c1ccc(C)nc1C [EPELSIBAN]
Ki [2]: 0.126 nM
AUC [3]: 3450 ng·h/mL
clearance [4]: 13 mL/min/kg
bioavailability [5]: 55%
AUC [11]: 69 ng·h/mL
clearance [12]: 19 mL/min/kg
bioavailability [13]: 13%
solubility [14]: 232 µg/mL (≈ 447 µM)
logD [15]: 2.2
fraction unbound [16]: 0.3
CLH [6]: < 1 mL/min/g
CLH [7]: < 1 mL/min/g
CLH [8]: 4 mL/min/g
CLH [9]: 5 mL/min/g
Ki [18]: > 6310 nM
Ki [19]: > 7940 nM
Ki [20]: 3980 nM
IC50 [21]: 192 nM
IC50 [22]: > 100000 nM
IC50 [23]: > 100000 nM
IC50 [24]: > 100000 nM
IC50 [25]: > 100000 nM
IC50 [26]: > 100000 nM
IC50 [27]: > 100000 nM
Activity [28]: Non-toxic
Activity [29]: Non-toxic
Activity [30]: Non-toxic
Activity [31]: Non-toxic
Activity [32]: Non-toxic
pKa [33]: 5.78
logD [34]: 2.55
solubility [35]: 33000 µg/mL (≈ 63600 µM)
Stability [36]: Stable
Stability [37]: Stable
AUC [10]: 116 ng·h/mL
clearance [38]: 26 mL/min/kg
bioavailability [39]: 7%
half-life [40]: 1.2 h

Cc1ccccc1[C@H](C(=O)NC(C)C)N1C(=O)[C@@H](C2Cc3ccccc3C2)NC(=O)[C@H]1CC(C)C
Ki [1]: 7.94 nM
